Earlier results, collected in publication PMC6650409, “Modeling the binding of diverse ligands within the Ah receptor ligand binding domain” (Scientific Reports, 2019).
Substitutions are numbered along the chain they refer to.

What was measured:
[1] = target: T1, M334A mutant AhR (Mus musculus, UniProt P30561, M334A); design: method as in PMID 21981577; conditions: M334A mutation; cited from earlier work
T1 construct: made in house; host or cells: in vitro, Promega TNT Quick rabbit reticulocyte lysate
T1 sequence (P30561 10-848 M334A): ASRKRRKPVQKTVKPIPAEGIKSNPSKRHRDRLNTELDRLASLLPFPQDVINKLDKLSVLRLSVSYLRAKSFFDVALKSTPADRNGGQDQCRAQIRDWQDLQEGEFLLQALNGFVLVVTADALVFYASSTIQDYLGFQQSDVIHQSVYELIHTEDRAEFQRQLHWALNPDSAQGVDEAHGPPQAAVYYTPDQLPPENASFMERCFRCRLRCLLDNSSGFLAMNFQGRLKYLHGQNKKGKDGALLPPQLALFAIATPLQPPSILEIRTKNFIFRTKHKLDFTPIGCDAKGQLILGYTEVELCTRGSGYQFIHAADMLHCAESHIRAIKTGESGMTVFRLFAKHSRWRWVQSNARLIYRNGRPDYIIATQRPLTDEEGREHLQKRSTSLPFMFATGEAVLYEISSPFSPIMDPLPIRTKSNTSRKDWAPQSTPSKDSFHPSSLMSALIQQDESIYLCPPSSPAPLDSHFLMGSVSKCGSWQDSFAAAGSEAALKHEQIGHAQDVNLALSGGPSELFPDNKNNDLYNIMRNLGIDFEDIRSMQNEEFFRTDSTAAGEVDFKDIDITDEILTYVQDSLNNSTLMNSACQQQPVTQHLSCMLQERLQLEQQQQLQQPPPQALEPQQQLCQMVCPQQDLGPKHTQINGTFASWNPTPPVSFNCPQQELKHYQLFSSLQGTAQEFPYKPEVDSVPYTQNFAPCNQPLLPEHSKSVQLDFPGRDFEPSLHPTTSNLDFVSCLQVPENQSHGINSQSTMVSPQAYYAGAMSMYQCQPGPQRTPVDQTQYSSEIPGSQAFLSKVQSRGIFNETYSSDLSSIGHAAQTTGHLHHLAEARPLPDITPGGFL

[2] = target: T2, C327A mutant AhR (Mus musculus, UniProt P30561, C327A); design: method as in PMID 21981577; conditions: C327A mutation; cited from earlier work
T2 construct: made in house; host or cells: in vitro, Promega TNT Quick rabbit reticulocyte lysate
T2 sequence (P30561 10-848 C327A): T1 sequence (P30561 10-848 M334A) with C318A, A325M

[3] = target: T3, L302A mutant AhR (Mus musculus, UniProt P30561, L302A); design: method as in PMID 21981577; conditions: L302A mutation; cited from earlier work
T3 construct: made in house; host or cells: in vitro transcription/translation (rabbit reticulocyte lysate)
T3 sequence (P30561 10-848 L302A): T1 sequence (P30561 10-848 M334A) with L293A, A325M

[4] = test system: zebrafish AhR1a (zfAhR1a); conditions: cited from earlier work

Clc1cc2c(cc1Cl)Oc1cc(Cl)c(Cl)cc1O2 [TCDD, 2,3,7,8-tetrachlorodibenzo-p-dioxin]
TCDD binding activity [1]: only partially affected | TCDD binding activity [2]: only partially affected | TCDD binding activity [3]: dramatically reduced | ligand binding to zfAhR1a [4]: unable to bind
